Assay results from publication PMC9241695, “Selective Metal Chelation by a Thiosemicarbazone Derivative Interferes with Mitochondrial Respiration and Ribosome Biogenesis in Candida albicans” (Microbiology Spectrum, 2022).

Columns and labels:
G. mellonella = experiment: Toxicity of 19ak in G. mellonella larvae; type: in vivo, Galleria mellonella; conditions: 10 μg per larva, 4 days
Procedure: Larvae of normal size and in good condition were injected with 10 μL of 19ak (1 mg/mL) or PBS. The survival of the larvae was monitored daily for 4 days.

SOD = SOD activity in treated cells; type: cell-based, Candida albicans; conditions: 0.5 μg/mL or above, 6 h
Procedure: Determination of SOD activity. SOD activity was measured using the Superoxide Dismutase Activity Assay Kit (Njjcbio, Nanjing, China) following the manufacturer's instructions. An overnight culture of C. albicans SC5314 was adjusted to 1 × 10^7 cells/mL with RPMI1640 medium and treated with 19ak at a final concentration of 0, 0.125, 0.25, 0.5, or 1 μg/mL for 6 h. After collection by centrifugation, the cells were broken by glass beads in extraction buffer and centrifuged at 4°C. The absorbance of the supernatant of each sample was measured with a microplate reader at450 nm.
Determination of catalase (CAT) activity. CAT activity was measured by using a Catalase Assay Kit (Solarbio, Beijing, China) following the manufacturer's instructions. An overnight culture of C. albicans SC5314 was adjusted to 1 × 10^6 cells/mL with RPMI1640 medium and treated as described above for SOD activity.
The decomposition of H2O2 is directly accompanied by a decrease in absorbance at 240 nm, and the difference in absorbance per unit time (ΔA240) is a measure of […]
Quantitative real-time polymerase chain reaction (qPCR) analysis. C. albicans SC5314 cells (1 × 10^6 cells/mL) were incubated with or without 19ak (0.5,2 μg/mL) in RPMI1640 medium for 6 h. Total RNA was extracted using the hot phenol method, and the RNA quality was analyzed using a spectrophotometer (Eppendorf, Hamburg, Germany). […]

C. albicans SC5314 cells = experiment: Mitochondrial membrane potential by Rh123; type: cell-based, Candida albicans; conditions: 0.125-1 μg/mL, 30°C, 6 h
Procedure: the fluorescent complex […] (CTF) is commonly used to indicate the intensity of microbial respiration. C. albicans SC5314 treated with 19ak was stained with 1 mM CTC for 30 min, followed by flow cytometry analysis of respiratory activity based on fluorescence intensity. Images of cells were obtained using a fluorescence microscope (IX71, Olympus, Tokyo, Japan). The Cell Counting Kit-8 (CCK-8) assay is used to measure the dehydrogenase activity in the mitochondria of C. albicans or mammalian cells. C. albicans SC5314 (5 × 10^6 cells/mL in RPMI1640 medium) were treated with different concentrations of 19ak in 96-well plates at 30°C for 12 h or 48 h. […] After an additional 2 h of incubation, OD450 in each well was detected with a microplate reader. […]
Mitochondrial isolation and detection of mitochondrial respiratory chain complex activity. […] The activities of mitochondrial respiratory chain complexes I-IV were determined by using the Micro Mitochondrial Respiratory Chain Complex Activity Assay Kit (Solarbio, Beijing, China). The concentration of protein was determined using the BCA Protein Assay Kit (Beyotime, Haimen, China).
Mitochondrial complex activity was expressed as nmol/min/mg protein. […]
Measurement of intracellular ATP production. […] Cellular protein concentrations were determined using a BCA Protein Assay Kit (Beyotime, Haimen, China). […]

For `C/C(=N\NC(=S)N(C)C)c1ccccn1` [Compound 19ak], the “Survival of uninfected larvae (toxicity)” value (G. mellonella) was “all treated larvae were still alive”, the SOD activity (SOD) was “increased” and the “Mitochondrial membrane potential (mtΔψ), Rh123” value (C. albicans SC5314 cells) was “decrease in mtΔψ”.
